Measurements reported in US12570642B2, “GLP-IR modulating compounds” (Gilead Sciences, Inc., priority 2021, dated 2026).

Target: GLP-1R (Homo sapiens, UniProt P43220)
Assay: GLP-1R Activation - cAMP Assay
Assay type: cell-based
Conditions: each compound run on one of the two cAMP assays (Assay 1 or Assay 2, not specified)
Method: GLP-1R Activation—cAMP Assay 1
GLP-1R activation by compounds of the present disclosure were quantified by measuring cAMP increase in CHO cells stably expressing GLP-1R (MultiSpan product #C1267-1a). The cells were harvested and plated in growth medium (DMEM/F-12 (Corning product #10-090-CV) supplemented with 10% FBS (HyClone product #SH30071-03), penicillin/streptomycin (Corning product #30-002CI) and 10 μg/ml puromycin (Gibco product #A11138-03)) at 1,000 cells/well in a 384-well plate (Greiner product #781080). The cells were then incubated overnight at 37° C., 5% CO2. The next day, the medium was removed and the cells were washed with DPBS (Corning product #21-031-CM) before adding the assay medium (HBSS, Corning product #21-023-CV) with 20 mM Hepes (Gibco product #15630-080) and 0.1% BSA (Rockland Immunochemicals product #BSA-1000)). Following the medium change, the cells were incubated for 1 hour at 37° C., 5% CO2. The tested GLP-1 compound was added to the cells in a 10-point dose response followed by a 30 minutes incubation at 37° C., 5% CO2. cAMP concentration increase was then detected using Cisbio's cAMP Gs Dynamic Kit (product #62AM4PEC) according to the manufacturer's protocol. The response was plotted against the log of the agonist concentration and fitted to a sigmoidal equation to determine the EC50.

[1] = cAMP increase in CHO cells stably expressing GLP-1R

GLP-1R, sequence (P43220 24-463): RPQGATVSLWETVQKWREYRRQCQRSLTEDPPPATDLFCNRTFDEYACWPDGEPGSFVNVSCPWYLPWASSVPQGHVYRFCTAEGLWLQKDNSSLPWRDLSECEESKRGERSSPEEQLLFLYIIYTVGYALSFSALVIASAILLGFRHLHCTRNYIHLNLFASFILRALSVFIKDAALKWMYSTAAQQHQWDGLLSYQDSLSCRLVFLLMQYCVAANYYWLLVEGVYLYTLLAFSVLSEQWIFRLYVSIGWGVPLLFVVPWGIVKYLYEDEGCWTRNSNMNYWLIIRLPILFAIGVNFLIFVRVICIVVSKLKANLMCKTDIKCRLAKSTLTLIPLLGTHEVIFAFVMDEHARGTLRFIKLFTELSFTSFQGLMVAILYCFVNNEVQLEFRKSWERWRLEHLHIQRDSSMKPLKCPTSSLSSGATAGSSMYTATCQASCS

COc1cc(Cl)ncc1COc1cccc(-c2cc(F)c(Cc3nc4c(F)cc(C(=O)O)cc4n3[C@@H]3COCC3(C)C)cc2F)n1 [Example 288, (S)-2-(4-(6-((6-chloro-4-methoxypyridin-3-yl)methoxy)pyridin-2-yl)-2,5-difluorobenzyl)-1-(4,4-dimethyltetrahydrofuran-3-yl)-4-fluoro-1H-benzo[d]imidazole-6-carboxylic acid]
EC50 [1]: 0.041 nM

Cn1cc(-c2cc(F)c(COc3cccc(-c4cc(F)c(Cc5nc6ccc(C(=O)O)cc6n5C5COCC5(C)C)cc4F)n3)cn2)cn1 (stereo not drawn) [Example 90]
EC50 [1]: 0.7 nM

CC1(C)COC[C@@H]1n1c(Cc2cc(F)c(-c3cccc(OCc4ccc(Cl)cc4)n3)cc2F)nc2ccc(C(=O)O)cc21 (single isomer, unassigned) [Example 385B]
EC50 [1]: 1.12 nM

CC1(C)COC[C@H]1n1c(Cc2cc(F)c(-c3ccnc(OCc4ccc(-n5ccnn5)cc4)n3)cc2F)nc2ccc(C(=O)O)cc21 [Example 182, (S)-2-(4-(2-((4-(1H-1,2,3-triazol-1-yl)benzyl)oxy)pyrimidin-4-yl)-2,5-difluorobenzyl)-1-(4,4-dimethyltetrahydrofuran-3-yl)-1H-benzo[d]imidazole-6-carboxylic Acid]
EC50 [1]: 0.178 nM

COCCn1c(Cc2cc(F)c(-c3cccc(OCc4ccc(C(F)(F)F)nc4Cl)n3)cc2F)nc2ccc(C(=O)O)cc21 [Example 34, 2-(4-(6-((2-chloro-6-(trifluoromethyl)pyridin-3-yl)methoxy)pyridin-2-yl)-2,5-difluorobenzyl)-1-(2-methoxyethyl)-1H-benzo[d]imidazole-6-carboxylic Acid]
EC50 [1]: 3.25 nM

CC1(C)COC[C@H]1n1c(Cc2c(F)cc(-c3ccnc(OCc4ccc(Cl)cc4F)n3)c(F)c2F)nc2c(F)cc(C(=O)O)cc21 [Example 196, (S)-2-(4-(2-((4-chloro-2-fluorobenzyl)oxy)pyrimidin-4-yl)-2,3,6-trifluorobenzyl)-1-(4,4-dimethyltetrahydrofuran-3-yl)-4-fluoro-1H-benzo[d]imidazole-6-carboxylic acid]
EC50 [1]: 0.508 nM

CC1(C)COC[C@H]1n1c(Cn2cc(F)c(-c3ccc(F)c(OCc4ccc(C#N)cc4F)n3)cc2=O)nc2c(F)cc(C(=O)O)cc21 [Example 132, (S)-2-((6-((4-cyano-2-fluorobenzyl)oxy)-5,5′-difluoro-2′-oxo-[2,4′-bipyridin]-1′(2′H)-yl)methyl)-1-(4,4-dimethyltetrahydrofuran-3-yl)-4-fluoro-1H-benzo[d]imidazole-6-carboxylic Acid]
EC50 [1]: 0.043 nM

CC(=O)N1C[C@@H](F)[C@H](n2c(Cc3cc(F)c(-c4cccc(OCc5ccc(C#N)cc5F)n4)cc3F)nc3ccc(C(=O)O)cc32)C1 [Example 40]
EC50 ([…]): 155 nM

Cc1cc(Cc2nc3c(F)cc(C(=O)O)cc3n2[C@@H]2COCC2(C)C)c(Cl)cc1-c1cccc(OCc2ccc(C#N)cc2)n1 [Example 133, (S)-2-(2-chloro-4-(6-((4-cyanobenzyl)oxy)pyridin-2-yl)-5-methylbenzyl)-1-(4,4-dimethyltetrahydrofuran-3-yl)-4-fluoro-1H-benzo[d]imidazole-6-carboxylic Acid]
EC50 [1]: 0.021 nM

COCCn1c(Cc2cc(F)c(-c3cccc(OCc4cnc(-n5ccnn5)cc4Cl)n3)cc2F)nc2ccc(C(=O)O)cc21 [Example 214, 2-(4-(6-((4-chloro-6-(1H-1,2,3-triazol-1-yl)pyridin-3-yl)methoxy)pyridin-2-yl)-2,5-difluorobenzyl)-1-(2-methoxyethyl)-1H-benzo[d]imidazole-6-carboxylic acid]
EC50 [1]: 0.299 nM

CC1(C)COC[C@H]1n1c(Cc2cc(F)c(-c3cccc(OCc4ccc(Cl)cc4F)n3)cc2F)nc2cc(Cl)c(C(=O)O)cc21 [Example 402, (S)-5-chloro-2-(4-(6-((4-chloro-2-fluorobenzyl)oxy)pyridin-2-yl)-2,5-difluorobenzyl)-1-(4,4-dimethyltetrahydrofuran-3-yl)-1H-benzo[d]imidazole-6-carboxylic acid]
EC50 [1]: 0.561 nM

CC1(C)COC[C@H]1n1c(Cc2ccc(-c3cccc(OCc4ccc(Cl)cc4F)n3)cc2F)nc2c(F)cc(C(=O)O)cc21 [Example 329, (S)-2-(4-(6-((4-chloro-2-fluorobenzyl)oxy)pyridin-2-yl)-2-fluorobenzyl)-1-(4,4-dimethyltetrahydrofuran-3-yl)-4-fluoro-1H-benzo[d]imidazole-6-carboxylic acid]
EC50 [1]: 0.062 nM

C[C@H]1COC[C@H]1n1c(Cc2cc(F)c(-c3ccc(F)c(OCc4ccc(C#N)cc4F)n3)cc2F)nc2ccc(C(=O)O)cc21 [Example 486, 2-(4-(6-((4-cyano-2-fluorobenzyl)oxy)-5-fluoropyridin-2-yl)-2,5-difluorobenzyl)-1-((3S,4R)-4-methyltetrahydrofuran-3-yl)-1H-benzo[d]imidazole-6-carboxylic acid]
EC50 [1]: 0.054 nM

CC1(C)COC[C@H]1n1c(Cc2cc(F)c(-c3cccc(OCc4ccc(-c5cnn(C(F)F)c5)cc4)n3)cc2F)nc2ccc(C(=O)O)cc21 [Example 551, (S)-2-(4-(6-((4-(1-(difluoromethyl)-1H-pyrazol-4-yl)benzyl)oxy)pyridin-2-yl)-2,5-difluorobenzyl)-1-(4,4-dimethyltetrahydrofuran-3-yl)-1H-benzo[d]imidazole-6-carboxylic acid]
EC50 [1]: 0.11 nM

COCCn1c(Cc2c(F)cc(-c3cccc(OCc4cnc(-n5ccnn5)cc4Cl)n3)c(F)c2F)nc2c(F)cc(C(=O)O)cc21 [Example 226, 2-(4-(6-((4-chloro-6-(1H-1,2,3-triazol-1-yl)pyridin-3-yl)methoxy)pyridin-2-yl)-2,3,6-trifluorobenzyl)-4-fluoro-1-(2-methoxyethyl)-1H-benzo[d]imidazole-6-carboxylic acid]
EC50 [1]: 0.022 nM

CO[C@@H]1COCC1n1c(Cc2cc(F)c(-c3cccc(OCc4ccc(C#N)cc4F)n3)cc2F)nc2c(F)cc(C(=O)O)cc21 (mixture of isomers) [Example 256, 2-(4-(6-((4-cyano-2-fluorobenzyl)oxy)pyridin-2-yl)-2,5-difluorobenzyl)-4-fluoro-1-((4S)-4-methoxytetrahydrofuran-3-yl)-1H-benzo[d]imidazole-6-carboxylic acid]
EC50 [1]: 0.117 nM

COC(=O)N1Cc2ccc(COc3cccc(-c4cc(F)c(Cc5nc6c(F)cc(C(=O)O)cc6n5[C@@H]5COCC5(C)C)cc4F)n3)cc2C1 [Example 263, (S)-2-(2,5-difluoro-4-(6-((2-(methoxycarbonyl)isoindolin-5-yl)methoxy)pyridin-2-yl)benzyl)-1-(4,4-dimethyltetrahydrofuran-3-yl)-4-fluoro-1H-benzo[d]imidazole-6-carboxylic acid]
EC50 [1]: 0.709 nM

COC(C)(C)Cn1c(Cc2cc(F)c(-c3cccc(OCc4cnc(-n5ccnn5)cc4Cl)n3)cc2F)nc2ccc(C(=O)O)cc21 [Example 563, 2-(4-(6-((4-chloro-6-(1H-1,2,3-triazol-1-yl)pyridin-3-yl)methoxy)pyridin-2-yl)-2,5-difluorobenzyl)-1-(2-methoxy-2-methylpropyl)-1H-benzo[d]imidazole-6-carboxylic acid]
EC50 [1]: 0.041 nM

CC1(C)COC[C@H]1n1c(Cc2ccc(-c3cccc(OCc4cnc(-n5ccnn5)cc4Cl)n3)cc2F)nc2ccc(C(=O)O)cc21 [Example 158, (S)-2-(4-(6-((4-chloro-6-(1H-1,2,3-triazol-1-yl)pyridin-3-yl)methoxy)pyridin-2-yl)-2-fluorobenzyl)-1-(4,4-dimethyltetrahydrofuran-3-yl)-1H-benzo[d]imidazole-6-carboxylic Acid]
EC50 [1]: 0.032 nM

CC1(C)COC[C@H]1n1c(Cc2cc(F)c(-c3ncc(F)c(OCc4ccc(Cl)cc4F)n3)cc2F)nc2ccc(C(=O)O)cc21 [Example 410, (S)-2-(4-(4-((4-chloro-2-fluorobenzyl)oxy)-5-fluoropyrimidin-2-yl)-2,5-difluorobenzyl)-1-(4,4-dimethyltetrahydrofuran-3-yl)-1H-benzo[d]imidazole-6-carboxylic acid]
EC50 [1]: 0.349 nM

N#Cc1ccc(COc2cccc(-c3cc(F)c(Cc4nc5ccc(C(=O)O)cc5n4C4CC45CC5)cc3F)n2)c(F)c1 (stereo not drawn) [Example 62]
EC50 [1]: 7.32 nM

CC1(C)COC[C@H]1n1c(Cc2cc(F)c(-c3ccnc(OCc4ccc(C#N)cc4)n3)cc2F)nc2ccc(C(=O)O)cc21 [Example 193, (S)-2-(4-(2-((4-cyanobenzyl)oxy)pyrimidin-4-yl)-2,5-difluorobenzyl)-1-(4,4-dimethyltetrahydrofuran-3-yl)-1H-benzo[d]imidazole-6-carboxylic acid]
EC50 [1]: 0.132 nM

CC1(C)COC[C@@H]1n1c(Cc2cc(F)c(-c3cccc(OCc4ccc(C#N)cc4F)n3)cc2F)nc2c(F)cc(C(=O)O)cc21 [Example 11, (R)-2-(4-(6-((4-cyano-2-fluorobenzyl)oxy)pyridin-2-yl)-2,5-difluorobenzyl)-1-(4,4-dimethyltetrahydrofuran-3-yl)-4-fluoro-1H-benzo[d]imidazole-6-carboxylic Acid]
EC50 [1]: 0.26 nM

N#Cc1ccc(COc2cccc(-c3cc(F)c(Cc4nc5ccc(C(=O)O)cc5n4[C@@H]4C[C@@H]5CC[C@H]4O5)cc3F)n2)c(F)c1 [Example 187, 1-((1R,2R,4S)-7-oxabicyclo[2.2.1]heptan-2-yl)-2-(4-(6-((4-cyano-2-fluorobenzyl)oxy)pyridin-2-yl)-2,5-difluorobenzyl)-1H-benzo[d]imidazole-6-carboxylic acid]
EC50 [1]: 0.391 nM
